According to US20230364153A1, “METHOD FOR DIRECT REPROGRAMMING FROM SOMATIC CELLS INTO PANCREATIC BETA CELLS BY USING MICRORNA, AND DIFFERENTIATION COMPOSITION” (Research & Business Foundation Sungkyunkwan University, priority 2020, published 2023):

Tests used:
[1] = tested on: mouse embryonic fibroblasts (MEFs); assay: qRT-PCR of pancreatic lineage markers during three-stage direct reprogramming of MEFs; format: cell-based; conditions: stage-1 cells, single miRNA transfected, relative to the mimic (FIG. 2a)
Protocol: (§1) MEFs (5×10^4 cells/well per 12-well plate) were transfected using the jetMESSENGER (Polyplus-Transfection, Illkirch, France) reagent according to the manufacturer's instructions. The miRNA to be infected (200 nM) (QIAGEN, Hilden, Germany) was diluted in mRNA buffer and 2 μL of the jetMESSENGER reagent was added thereto. The mixture was incubated at room temperature for 20 minutes and then added to MEFs, and 24 hours thereafter, a stage-specific medium was added thereto.
For direct reprogramming of cells, knockout DMEM (KO-DMEM) (Gibco) was used as a basal medium. The knockout DMEM includes 15% knockout serum replacement (Gibco, Thermo Fisher Scientific, Inc., Waltham, MA, USA), 5% FBS (exosome depleted), 1% GlutaMax (Gibco, Thermo Fisher Scientific, Inc., Waltham, MA, USA), 1% Non-Essential Amino Acids (NEAA, Gibco, Thermo Fisher Scientific, Inc., Waltham, MA, USA), and 0.5 mM β-ME (Sigma Aldrich, Inc., Saint Louis, MO, USA).
The three-stage differentiation protocol of the present disclosure is as follows: Stage 1, differentiation from MEFs into pancreatic endoderm cells; Stage 2, differentiation of pancreatic endoderm cells into pancreatic progenitor-like cells; Stage 3, differentiation from pancreatic progenitor-like cells into beta-cell-like cells.
First, 5×10^4 MEF cells/well were seeded in a 12-well tissue culture plate of DMEM containing 10% FBS and 1×P/S for one day. The next day, a Stage 1 differentiation medium was added thereto. The Stage 1 differentiation medium contains 1 μM Bix-01294 (MedchemExpress, Monmouth Junction, NJ, USA), 280 μM 2-phospho-L-ascorbic acid (pVC) Sigma Aldrich, Inc., Saint Louis, MO, USA), and 50 ng/mL activin A (R&D Systems, Minneapolis, MI, USA). After addition of the medium, cells were maintained for 6 days. The medium used was replaced every 3 days. After 6 days, a Stage 2 differentiation medium was added for 4 days. […]
Statistical significance was determined by a two-way, paired student's t-test. […]

[2] = tested on: mouse embryonic fibroblasts (MEF); assay: Proliferation / morphology of MEFs by bright field microscopy in stage-1 differentiation; format: cell-based; conditions: after 48 hours (FIG. 3c)
Protocol: FIGS. 3a to 3c confirm the proliferative ability of mouse embryonic fibroblasts (MEF) following transfection with a miRNA mimic and combinations of miRNAs (miR-127, miR-709, and miR-19b) of the present disclosure.
as §1

Substance	induction of Pdx1 expression [1] [fold]	cell proliferation [2]
miR-19b: microRNA, SEQ ID NO: 5, ugugcaaauccaugcaaaacuga (UGUGCAAAUCCAUGCAAAACUGA; listed as RNA, chemistry not given here)	1.6	highest cell proliferation
miR-127: microRNA, SEQ ID NO: 1, CUGAAGCUCAGAGGGCUCUGAU	3.9	–
miR-709: microRNA, SEQ ID NO: 2, GGAGGCAGAGGCAGGAGGA (listed as RNA, chemistry not given here)	3.2	–
